Assay results published in US20100256146A1, “TRISUBSTITUTED PIPERIDINES” (Novartis AG, priority 2007, published 2010).
pIC50: −log10 of the molar value.

Biological target: T1, renin (Homo sapiens, UniProt P00797)
T1 construct: This test measures the formation of angiotensin I in human plasma; from tissue; host or cells: human plasma
T1 sequence (P00797 67-406): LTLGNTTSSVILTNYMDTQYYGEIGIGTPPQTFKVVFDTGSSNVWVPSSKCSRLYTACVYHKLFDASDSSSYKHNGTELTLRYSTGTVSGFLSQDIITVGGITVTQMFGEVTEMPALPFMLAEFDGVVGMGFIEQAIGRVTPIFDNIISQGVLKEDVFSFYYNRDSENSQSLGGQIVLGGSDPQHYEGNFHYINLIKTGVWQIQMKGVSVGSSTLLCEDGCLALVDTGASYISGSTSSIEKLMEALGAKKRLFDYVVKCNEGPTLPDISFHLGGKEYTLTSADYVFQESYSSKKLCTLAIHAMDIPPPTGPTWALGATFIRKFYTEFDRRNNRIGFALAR
Assay: in vitro test of Nussberger et al.: formation of angiotensin I in human plasma, determined by radioimmunoassay
Assay type: biochemical
Conditions: concentration of inhibitor which reduces the formation of angiotensin I in human plasma by 50%
Experimental: The effect of renin inhibitors is detected inter alia experimentally by means of in vitro tests where the reduction in the formation of angiotensin I is measured in various systems (human plasma, purified human renin together with synthetic or natural renin substrate). The following in vitro test of Nussberger et al. (1987) J. Cardiovascular Pharmacol., Vol. 9, pp. 39-44, is used inter alia. This test measures the formation of angiotensin I in human plasma. The amount of angiotensin I formed is determined in a subsequent radioimmunoassay. The effect of inhibitors on the formation of angiotensin I is tested in this system by adding various concentrations of these substances. The IC50 is defined as the concentration of the particular inhibitor which reduces the formation of angiotensin I by 50%. The compounds of the present invention show inhibitory effects in the in vitro systems at minimal concentrations of about 10^−6 to about 10^−10 mol/l.

SMILES | pIC50
COCCCN1CCOc2ccc(CO[C@H]3CNCC[C@]3(OC[C@@H](O)COC)c3ccc(COCCOC)cc3)cc21 [Example 3, (S)-1-Methoxy-3-{(3S,4S)-4-[4-(2-methoxy-ethoxymethyl)-phenyl]-3-[4-(3-methoxy-propyl)-3,4-dihydro-2H-benzo[1,4]oxazin-6-ylmethoxy]-piperidin-4-yloxy}-propan-2-ol] | 8.02
COCCCN1CCOc2ccc(CO[C@H]3CNCC[C@]3(OCC3CCCC3)c3ccc(COCCOC)cc3)cc21 [Example 5, 6-{(3S,4S)-4-Cyclopentylmethoxy-4-[4-(2-methoxy-ethoxymethyl)-phenyl]-piperidin-3-yloxymethyl}-4-(3-methoxy-propyl)-3,4-dihydro-2H-benzo[1,4]oxazine] | 7.03
COCCCN1CCOc2ccc(CO[C@H]3CNCC[C@]3(OCCOC)c3ccc(COCCOC)cc3)cc21 [Example 1, 6-{(3S,4S)-4-(2-Methoxy-ethoxy)-4-[4-(2-methoxy-ethoxymethyl)-phenyl]-piperidine-3-yloxymethyl}-4-(3-methoxy-propyl)-3,4-dihydro-2H-benzo[1,4]oxazine] | 7.58

Now from value to compound:

pIC50 | SMILES
8.12 | COCCCN1CCOc2ccc(CO[C@H]3CNCC[C@]3(OCC#N)c3ccc(COC[C@@H](C)COC)cc3)cc21 [Example 12, {(3S,4S)-4-[4-((S)-3-Methoxy-2-methyl-propoxymethyl)-phenyl]-3-[4-(3-methoxy-propyl)-3,4-dihydro-2H-benzo[1,4]oxazin-6-ylmethoxy]-piperidin-4-yloxy}-acetonitrile]
7.98 | COCCCN1CCOc2ccc(CO[C@H]3CNCC[C@]3(OC[C@H](O)COC)c3ccc(COCCOC)cc3)cc21 [Example 2, (R)-1-Methoxy-3-{(3S,4S)-4-[4-(2-methoxy-ethoxymethyl)-phenyl]-3-[4-(3-methoxy-propyl)-3,4-dihydro-2H-benzo[1,4]oxazin-6-ylmethoxy]-piperidin-4-yloxy}-propan-2-ol]
8.52 | COCCCO[C@]1(c2ccc(COC[C@@H](C)COC)cc2)CCNC[C@@H]1OCc1ccc2c(c1)N(CCCOC)CCO2 [Example 10, 6-[(3S,4S)-4-[4-((S)-3-Methoxy-2-methyl-propoxymethyl)-phenyl]-4-(3-methoxy-propoxy)-piperidin-3-yloxymethyl]-4-(3-methoxy-propyl)-3,4-dihydro-2H-benzo[1,4]oxazine]
